Where two headings read alike, the source gives them in different places.
What was measured:
Hazara virus (HAZV) [1] = experiment: microbe, parasite or virus in culture; assay type: cell-based
Vero cells = experiment: Cell viability, MTT assay; assay type: cell-based; settings: 48 h
SARS-CoV-2 = assay type: cell-based
OGG1 = OGG1 (Homo sapiens, UniProt O15527); experiment: In vitro OGG1 activity assay; assay type: biochemical; settings: for OGG1 activity (in words): Figure 3A
Huh7 cells = experiment: Cell viability, resazurin assay; assay type: cell-based; settings: Huh7 cells, 24, 48 or 72 h
EBOV = assay type: cell-based, Sudan Ebolavirus; settings: Vero cells, MOI 0.5, 10 µM, 48 h
CoV 229E = CoV 229E titer in Huh7 cells, end-point dilution assay; assay type: cell-based, Coronavirus 229E; settings: MOI 5, 10 µM, 24 h
CCHFV = assay type: cell-based, Crimean-Congo hemorrhagic fever virus; settings: Vero cells, MOI 1, 10 µM, 48 h
[2] = Viability of SW13 cells by nuclei count in the HAZV antiviral assay; assay type: cell-based; settings: human, SW13 cells inoculated with HAZV; SW13 cells, nuclei count relative to DMSO, 10 μM, 24 h
SW13 cells = experiment: as above; assay type: cell-based; settings: Homo sapiens
Hazara virus (HAZV) [3] = experiment: microbe, parasite or virus in culture; assay type: cell-based; settings: SW13, 24 h; for inhibition at 10 µM: read-out: Viral inhibition on primary infection (%)

Chain of OGG1 (O15527 whole entry): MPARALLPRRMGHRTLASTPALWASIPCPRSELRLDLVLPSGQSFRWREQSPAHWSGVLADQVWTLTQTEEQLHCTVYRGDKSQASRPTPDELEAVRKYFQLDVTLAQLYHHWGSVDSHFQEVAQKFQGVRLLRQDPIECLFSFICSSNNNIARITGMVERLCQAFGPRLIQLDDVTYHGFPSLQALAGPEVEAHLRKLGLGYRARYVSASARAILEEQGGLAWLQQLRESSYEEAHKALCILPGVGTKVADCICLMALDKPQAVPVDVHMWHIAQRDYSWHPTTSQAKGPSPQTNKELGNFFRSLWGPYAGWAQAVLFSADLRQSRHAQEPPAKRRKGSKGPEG

Compound	reduction of HAZV viral titer (Hazara virus (HAZV) [1]; 100 µM, positive control)	toxicity profile, viability by MTT assay (Vero cells)	reduction of SARS-CoV-2 titer (SARS-CoV-2)	OGG1 activity (in words) (OGG1)	toxicity profile, cellular viability by resazurin assay (Huh7 cells)	reduction of EBOV viral titer (EBOV)	reduction of CoV 229E titer (CoV 229E)	reduction of CCHFV viral titer (CCHFV)	viability at 24 h, 10 µM [2]	EC50 (SW13 cells; SW13, 24 h, read-out: EC50 Living cells)	EC50 (SW13 cells; HAZV, SW13, MOI 1, 24 h, read-out: Viability (nuclei count) EC50)	IC50 (Hazara virus (HAZV) [1]; Hazara virus, SW13, 24 h, read-out: Antiviral on titer (µM) IC50 [µM])	EC50 (Hazara virus (HAZV) [1]; Hazara virus, SW13, read-out: EC50 Viral titer)	inhibition at 10 µM (Hazara virus (HAZV) [1]; Hazara virus, Vero, 24 h, read-out: Viral inhibition on titer (%))	reduction of HAZV titer (Hazara virus (HAZV) [1]; SW13 cells, MOI 1, 10 µM, 24 h)	IC50 (Hazara virus (HAZV) [3]; read-out: Antiviral on primary infection IC50 [µM])	EC50 (Hazara virus (HAZV) [3]; read-out: EC50 Infected cells (primary infection))	inhibition at 10 µM (Hazara virus (HAZV) [3])	IC50 (OGG1)
NC(=O)c1ncn([C@@H]2O[C@H](CO)[C@@H](O)[C@H]2O)n1 [Ribavirin, reference compound]	98%	–	–	–	–	–	–	–	–	–	–	–	–	–	–	–	–	–	–
O=C(Nc1ccc(I)cc1)N1CCC(n2c(=O)[nH]c3cc(Cl)ccc32)CC1 [TH3289]	–	favourable toxicity profile	58%	Micromolar OGG1activity	favourable toxicity profile	40%	84%	70%	77%	46.5 µM	47.5 µM	14.7 µM	14.7 µM	95%	94%	18.7 µM	18.7 µM	58%	–
O=C(Nc1ccc(I)cc1)N1CCC(c2c[nH]c3ccccc23)CC1 [TH4448, 4‐(1H‐indol‐3‐yl)‐N‐(4‐iodophenyl)piperidine‐1‐carboxamide]	–	–	–	No OGG1 activity	–	–	–	–	82%	–	–	–	–	–	–	–	–	98%	> 99 µM

Source: PMC7762994 (Viruses, 2020)
